Columns and labels:
[1] = Inhibition of porcine pancreatic alpha-amlyase after 10 mins; design: species or system Sus scrofa
Alpha glucosidase = Alpha glucosidase (Homo sapiens, UniProt O43451+P10253+P14410+Q2M2H8); assay: Inhibition of alpha-glucosidase (unknown origin) using p-nitrophenyl-a-d-glucopyranoside as substrate preincubated for 5 mins followed by substrate addition measured after 5 mins by spectrophotometric analysis; type: protein assay
[2] = Anti glycation activity assessed as inhibition of BSA glycation after 7 days in presence of glucose by spectrofluorimetry assay; type: functional
[3] = Antioxidant activity assessed as DPPH radical scavenging activity after 30 mins; type: functional
[4] = biological target: Amyloid-beta precursor protein (Homo sapiens, UniProt P05067); assay: Inhibition of amyloid beta (1 to 42) (unknown origin) aggregation
Erythrocyte = assay: Antiinflammatory activity in human erythrocytes assessed as inhibition of hypotonic solution-induced haemolysis after 10 mins by spectrophotometric analysis; type: functional, cell-based

Amyloid-beta precursor protein, sequence (P05067 whole entry): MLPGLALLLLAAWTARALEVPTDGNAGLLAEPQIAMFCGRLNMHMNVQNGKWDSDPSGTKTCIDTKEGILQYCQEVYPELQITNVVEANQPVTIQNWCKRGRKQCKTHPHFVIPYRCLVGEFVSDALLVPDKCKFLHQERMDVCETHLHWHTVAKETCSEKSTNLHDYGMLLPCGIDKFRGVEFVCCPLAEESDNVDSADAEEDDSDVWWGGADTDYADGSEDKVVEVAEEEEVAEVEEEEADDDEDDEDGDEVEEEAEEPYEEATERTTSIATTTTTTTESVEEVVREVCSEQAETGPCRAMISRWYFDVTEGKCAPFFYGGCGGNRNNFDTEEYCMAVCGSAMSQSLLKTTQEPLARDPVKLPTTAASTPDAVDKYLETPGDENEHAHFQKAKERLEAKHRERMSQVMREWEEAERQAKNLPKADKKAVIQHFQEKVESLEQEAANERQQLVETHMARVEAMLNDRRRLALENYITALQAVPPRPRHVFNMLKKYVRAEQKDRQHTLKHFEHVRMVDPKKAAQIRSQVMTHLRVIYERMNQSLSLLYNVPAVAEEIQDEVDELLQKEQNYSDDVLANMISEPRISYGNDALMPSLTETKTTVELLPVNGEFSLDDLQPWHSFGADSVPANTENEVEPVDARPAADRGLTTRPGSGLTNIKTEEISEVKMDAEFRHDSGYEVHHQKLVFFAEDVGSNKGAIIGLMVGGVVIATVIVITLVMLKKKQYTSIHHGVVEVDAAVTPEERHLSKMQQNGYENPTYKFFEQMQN

`O=C(NNC(=S)Nc1ccc(F)cc1)c1cc2cc(Cl)cnc2[nH]1` showed an IC50 [1] of 2.03 µM.
Work on `O=C(NNC(=S)Nc1ccccc1Cl)c1cc2cc(Cl)ccc2[nH]1` yielded an IC50 [1] of 2.1 µM.
With `Clc1ccc(-c2nnc(/N=C/c3ccc(Cl)cc3Cl)s2)cc1` the IC50 (Alpha glucosidase) was 4.7 µM.
`Oc1ccc(-c2nc3ncc(Cl)cc3[nH]2)c(O)c1` gave an IC50 [2] of 240 µM.
For `Oc1ccc(O)c(-c2nc3ncc(Cl)cc3[nH]2)c1`, the IC50 [3] was 72.5 µM.
`O=c1c2c(F)cccc2[se]n1-c1cc(Cl)c(O)c2ncccc12` gave an IC50 [4] of 9.6 µM.
Work on `CCCc1nc(C(C)(C)O)c(C(=O)N/N=C/c2ccc(Cl)cc2Cl)[nH]1` yielded an IC50 (Erythrocyte) of 46 µM.

Source: ChEMBL document CHEMBL4346708, “Synthetic approaches and pharmaceutical applications of chloro-containing molecules for drug discovery: A critical review” (Eur J Med Chem, 2019)
